In PubChem BioAssay AID1918958 (Molecular Pharmacology Branch, DTP, NCI, 2023):

Tested on: NCI-H196 complex spheroid viability
Assay: Anticancer human tumor NCI-H196 cell line growth inhibition [LSD1];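 further: spheroids exposed to agents for 7 days before readout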;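 on viability, T/C: 100% = DMSO vehicle control viability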
Conditions: for IC50: curve of first compound; for viability, T/C: stronger effect = lower value
Summary of the method: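 Drug combinations with the LSD1 inhibitor iadademstat tested on tumor cells co-cultured as spheroids with endothelial cells and mesenchymal stem cells. Concentrations descended in half-log increments from clinical Cmax or 10 microM.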

[1] = second compound 0.1 µM, first compound 0.0316 µM
[2] = second compound 0.1 µM, first compound 0.1 µM
[3] = second compound 0.1 µM, first compound 0.316 µM
[4] = second compound 0.1 µM, first compound 1 µM
[5] = second compound 0.1 µM, first compound 3.16 µM
[6] = second compound 0.1 µM, first compound 10 µM
[7] = second compound 0.316 µM, first compound 0.0316 µM
[8] = second compound 0.316 µM, first compound 0.1 µM
[9] = second compound 0.316 µM, first compound 0.316 µM
[10] = second compound 0.316 µM, first compound 1 µM
[11] = second compound 0.316 µM, first compound 3.16 µM
[12] = second compound 0.316 µM, first compound 10 µM
[13] = second compound 1 µM, first compound 0.0316 µM
[14] = second compound 1 µM, first compound 0.1 µM
[15] = second compound 1 µM, first compound 0.316 µM
[16] = second compound 1 µM, first compound 1 µM
[17] = second compound 1 µM, first compound 3.16 µM
[18] = second compound 1 µM, first compound 10 µM
[19] = second compound 3.16 µM, first compound 0.0316 µM
[20] = second compound 3.16 µM, first compound 0.1 µM
[21] = second compound 3.16 µM, first compound 0.316 µM
[22] = second compound 3.16 µM, first compound 1 µM
[23] = second compound 3.16 µM, first compound 3.16 µM
[24] = second compound 3.16 µM, first compound 10 µM
[25] = second compound 10 µM, first compound 0.0316 µM
[26] = second compound 10 µM, first compound 0.1 µM
[27] = second compound 10 µM, first compound 0.316 µM
[28] = second compound 10 µM, first compound 1 µM
[29] = second compound 10 µM, first compound 3.16 µM
[30] = second compound 10 µM, first compound 10 µM

Compound | IC50 (second compound 0.1 µM) [µM] | IC50 (second compound 0.316 µM) [µM] | IC50 (second compound 1 µM) [µM] | IC50 (second compound 3.16 µM) [µM] | IC50 (second compound 10 µM) [µM] | viability, T/C [1] [%] | viability, T/C [2] [%] | viability, T/C [3] [%] | viability, T/C [4] [%] | viability, T/C [7] [%] | viability, T/C [8] [%] | viability, T/C [9] [%] | viability, T/C [10] [%] | viability, T/C [13] [%] | viability, T/C [14] [%] | viability, T/C [15] [%] | viability, T/C [16] [%] | viability, T/C [19] [%] | viability, T/C [20] [%] | viability, T/C [21] [%] | other results
CC(C)c1c(-c2ccccc2)nc2c(C#N)c[nH]n2c1=O + NC1CCC(NC2CC2c2ccccc2)CC1 | > 10 | > 10 | > 10 | > 10 | > 10 | 104 | 105 | 114 | 94.2 | 101 | 101 | 107 | 98.2 | 97.4 | 93.3 | 96.4 | 94.1 | 97.7 | 104 | 98.5 | viability, T/C [5]: 90.7%; viability, T/C [6]: 95.6%; viability, T/C [11]: 90%; viability, T/C [12]: 84.9%; viability, T/C [17]: 91.7%; viability, T/C [18]: 90.7%; viability, T/C [22]: 93.4%; viability, T/C [23]: 94.3%; viability, T/C [24]: 88%; viability, T/C [25]: 98.7%; viability, T/C [26]: 97.1%; viability, T/C [27]: 99.1%; viability, T/C [28]: 102%; viability, T/C [29]: 83.4%; viability, T/C [30]: 89%
CC1COCCN1c1cc(-c2ccnn2C)c2ccnc(-c3ccn[nH]3)c2n1 (stereo not given) + NC1CCC(NC2CC2c2ccccc2)CC1 | 0.296 | 0.366 | 0.31 | 0.771 | 0.266 | 80 | 58.1 | 54.1 | 44.2 | 75.2 | 59.8 | 51.7 | 47.1 | 74.2 | 57.7 | 51.8 | 47.6 | 69.9 | 60.1 | 53.9 | viability, T/C (second compound 0.1 µM, first compound 0.00316 µM): 84.7%; viability, T/C (second compound 0.1 µM, first compound 0.01 µM): 84.3%; viability, T/C (second compound 0.316 µM, first compound 0.00316 µM): 81%; viability, T/C (second compound 0.316 µM, first compound 0.01 µM): 86.4%; viability, T/C (second compound 1 µM, first compound 0.00316 µM): 73.6%; viability, T/C (second compound 1 µM, first compound 0.01 µM): 78.7%; viability, T/C (second compound 3.16 µM, first compound 0.00316 µM): 88%; viability, T/C (second compound 3.16 µM, first compound 0.01 µM): 82.6%; viability, T/C [22]: 48.5%; viability, T/C (second compound 10 µM, first compound 0.00316 µM): 86.7%; viability, T/C (second compound 10 µM, first compound 0.01 µM): 78.8%; viability, T/C [25]: 74.5%; viability, T/C [26]: 56.2%; viability, T/C [27]: 49%; viability, T/C [28]: 46.5%
COc1ccc([C@@H](O)c2cc(-c3ncnc4cc(N5CCOCC5)ccc34)c(F)cc2Cl)nn1 + NC1CCC(NC2CC2c2ccccc2)CC1 | > 10 | > 10 | > 10 | > 10 | > 10 | 102 | 99.2 | 88.9 | 81.3 | 103 | 102 | 96.6 | 85.5 | 95.7 | 105 | 93.4 | 90.5 | 103 | 103 | 88.9 | viability, T/C [5]: 72.7%; viability, T/C [6]: 53.7%; viability, T/C [11]: 73.4%; viability, T/C [12]: 54.6%; viability, T/C [17]: 76%; viability, T/C [18]: 58%; viability, T/C [22]: 88.9%; viability, T/C [23]: 69.5%; viability, T/C [24]: 54%; viability, T/C [25]: 102%; viability, T/C [26]: 104%; viability, T/C [27]: 89.8%; viability, T/C [28]: 84.2%; viability, T/C [29]: 73.3%; viability, T/C [30]: 57%
